Measurements reported in patent publication US20130053336A1, “TREATMENT OF CHLAMYDIACEAE INFECTIONS BY MEANS OF BETA-LACTAMS” (priority 2010, published 2013).
Entries after “also recorded” stand apart in the source; their conditions may differ.

What was measured:
Type in all cases: cell-based
[1] = test system: Cells Infected with Chlamydia trachomatis serovar L2; assay: Cytotoxicity of β-lactams; details: given as 0
Description: It was first sought to verify whether other molecules of the β-lactam family could induce in vitro the same abnormal and noninfectious forms of Chlamydia trachomatis as that produced in the presence of penicillin G. Titration experiments were performed on the infectious ability of bacteria from infected cells treated with different β-lactams. Cytotoxicity and minimum bactericidal concentration (MBC) were determined for each of these molecules. It was also verified whether all of these β-lactams have bactericidal action on persistent forms of Chlamydia trachomatis produced in vitro under the effect of IFN-γ.

[2] = test system: Chlamydia trachomatis L2 serovar 16S rRNA; assay: 16S rRNA expression by RT-PCR; details: 100 hpi
From the text: HeLa cells were infected with the Chlamydia trachomatis L2 serovar and treated or not treated with penicillin G at 3 hpi. At 100 hpi, the cells were collected and the RNA extracted carefully to avoid DNA contamination. Half of the isolated RNA was used for reverse transcription. The RNA and cDNA were amplified by PCR with primers for 16S (bacterial) and 18S (eukaryotic) rRNA in order to study bacterial activity and to verify cDNA quality and quantity. PCR of the RNA is used to verify the absence of DNA contamination. It also indicates the absence of contaminant in the PCR. […] Roughly 1×10^5 HeLa cells were infected and exposed or not exposed to penicillin G, as described above. At 100 hpi, total RNA were isolated using the RNeasy Plus Mini Kit (Qiagen, Hilden, Germany). The samples were treated with DNase I for 1 hour at 37° C. The enzyme was then denatured at 70° C. for 10 min. The RNA were reverse-transcribed into cDNA using random hexamer primers and AffinityScript Multiple Temperature Reverse Transcriptase (Agilent, Santa Clara, Calif., USA) and by following the manufacturer's instructions for RT-PCR. cDNA and RNA were amplified by PCR with Tag Polymerase (Invitrogen, Carlsbad, Calif., USA) in order to verify the absence of DNA contamination. The primers used to amplify 16S rRNA are: A semi-quantitative analysis of the PCR products was carried out by agarose gel electrophoresis and UV detection.

[3] = test system: Chlamydia trachomatis serovar L2; assay: Infectivity of progeny bacteria (IFU titration, reactivation test)
Description: HeLa cells were infected with the Chlamydia trachomatis L2 serovar at 1 inclusion forming unit (IFU). At 3 hpi, 3 equal batches were distinguished and penicillin G was added at a concentration of 100 U/ml to the “penicillin G” batch (black bar) and “reversion” (gray bar) but not in the control batch (white bar). At 24 hpi, penicillin G was removed from the culture medium in the reversion group. At 48 hpi or 100 hpi, the supernatants and the cells were combined and stored at -80° C. Fresh cultures of HeLa cells were then incubated for 1 hour with cell extracts (left) or supernatants (right), incubated with cycloheximide and fixed 24 hours later. The nuclei and the inclusions were stained and counted to calculate the number of IFU/ml. […] It is also a first indication of the lethality of Chlamydia. HeLa cells were infected with Chlamydia trachomatis serovar L2 at 1 IFU. At 3 hpi, penicillin G was added at a concentration of 1, 10 or 100 U/ml in the penicillin G (-) and reversion (+) samples. At 24 hpi, penicillin G was removed from the culture medium in the reversion group (+). At 48 hpi or 100 hpi, the supernatants and the cells were collected and stored at -80° C. HeLa cells grown on slides were incubated for 1 hour with cell extracts (left) or with supernatants (right), treated with cycloheximide and fixed 24 hours later. The nuclei and inclusions were stained and counted to determine the number of IFU/ml. […] The infections were carried out at 37° C. for 90 minutes with centrifugation, followed by a washing of extracellular bacteria. At 3 hpi, after the washings, the culture medium was replaced with medium containing either 25 μg/ml gentamicin or 1-100 IU/ml penicillin G. At regular intervals after treatment with penicillin G, the cultures were either fixed in 4% neutral buffered PFA for 30 minutes to be prepared for confocal microscopy, or collected to determine the infectivity of the progeny bacteria, according to the previously described method (Verbeke, P. et al. PLoS Pathog 2:e45, 2006). HeLa cells cultured in monolayers on slides were infected with Chlamydia trachomatis serovar L2 and treated with penicillin G, as described above. Twenty hours after infection, the culture was washed and the medium replaced with medium free of penicillin G. Between 48 and 100 hpi, the cells and the culture medium were collected at various intervals and a titration test was performed according to the method of the prior art (Scidmore, M. A. Curr Protoc Microbiol Chapter 11: Unit 11A 11, 2005). To determine whether treatment with penicillin G could affect bacterial persistence, HeLa cells infected with L2 and treated with IFN-γ and penicillin G (500 IU/ml) from 48 hpi (i.e. 24 hours after treatment with IFN-γ) to 72 hpi (i.e. 48 hours after treatment with IFN-γ). The slides were then fixed and observed using an epifluorescence microscope (Leica D M, Leica, Mannheim, Germany) equipped with two sets of detection filters (Hoechst 360/40 nmBP-425 nmLP; FITC 480/40 nmBP-527/30 nmBP) and connected to a CCD camera CCC.

[4] = test system: Chlamydia trachomatis serovar L2; assay: Development and morphology of inclusions in infected HeLa cells (microscopy)
Description: HeLa cells were infected with Chlamydia trachomatis serovar L2 and treated with IFN-γ (100 ng/ml), penicillin G (100 U/ml) or gentamicin ([…]). At various times after infection (hours post-infection (hpi)), the cells were fixed and stained with an antibody against Chlamydia sp. (green in the original figure) and with Hoechst (blue in the original figure). The infected HeLa cells treated with penicillin G have abnormal bodies that grow and that are phenotypically quite different from those formed during treatment with IFN-γ. The bodies formed with penicillin G are appreciably different from “classic” persistent bodies. To examine the effects of penicillin G on cell infection with Chlamydia, the host cells were cultivated up to 70% confluence without antibiotics, and then were infected with C. trachomatis strain […]. muridarum at 1 IFU. The infections were carried out at 37° C. for 90 minutes with centrifugation, followed by a washing of extracellular bacteria. At 3 hpi, after the washings, the culture medium was replaced with medium containing either 25 μg/ml gentamicin or 1-100 IU/ml penicillin G. At regular intervals after treatment with penicillin G, the cultures were either fixed in 4% neutral buffered PFA for 30 minutes to be prepared for confocal microscopy, or collected to determine the infectivity of the progeny bacteria, according to the previously described method (Verbeke, P. et al. PLoS Pathog 2:e45, 2006). HeLa cells cultured in monolayers on slides were infected with serovar L2 with an IFU of 1, as described above (Verbeke, P. et al. PLoS Pathog 2:e45, 2006). Three hours after the infection, the medium was removed and replaced with culture medium containing 500 IU/ml (final concentration) recombinant human IFN-γ.

SMILES: CC1(C)S[C@@H]2[C@H](NC(=O)Cc3ccccc3)C(=O)N2[C@H]1C(=O)O [Penicillin G, benzylpenicillin]
- Cytotox. [1]: 0
- 16S rRNA expression in infected cells [2]: do not produce bacterial RNA; also recorded: express 18S RNA, but not 16S
- infectivity at low penicillin G concentrations ([3]; 1, 10 or 100 U/ml, permanent or transitory treatment): same irreversible loss of infectivity; also recorded: no reinfection was obtained
- infectivity after removing penicillin G at 24 hpi (reversion) ([3]; 100 U/ml from 3 hpi, removed at 24 hpi): no improvement in infectivity
- infectious ability (IFU/ml) with or without reversion phase ([3]; 100 U/ml, 48 hpi or 100 hpi, cell extracts and supernatants, FIG. 2): no infectious ability could be shown
- infectivity of bacteria collected at 48 hpi compared with gentamicin-treated cells ([3]; continuous 100 IU/ml, 48 hpi): several hundred times less infectious
- infectivity of bacteria released at 100 hpi ([3]; continuous 100 IU/ml, 100 hpi): completely noninfectious
- growth of the bacterial inclusions ([4]; infected HeLa cells, videomicroscopy / culture for 4 days): grow as quickly as those of cells treated with gentamicin
- time at which infected treated cells were lysed ([4]; penicillin G): 120 hours post-infection (hpi)
- appearance of abnormally dilated structures depending on time of addition ([4]; penicillin G added at various times after infection): only when penicillin G is added in the first phase of the bacterial cycle (before 24 hpi)
